Patent publication US8318898B2, “Synthetic peptides for use as inhibitors of neurotransmitter secretion and as inducers of cellular relaxation” (Universite de Lausanne, priority 2005, dated 2012)
Like-named read-outs stand apart in the source and are kept apart here. Ends that are not written are not given here.

Tests used:
PC12 cells = assay: Inhibition of [3H]norepinephrine neurosecretion by PC12 cells; type: cell-based, rat; conditions: for inhibition of neurotransmitter-evoked secretion: concentration not given, peptide alone; for level of inhibition maintained over the 48 hour period: cultured with PC12 cells for 48 hours in the presence or absence of serum, up to 90%; for inhibition of secretion, stability test: 100 μM
Protocol: Using the neurosecretion assay described above, peptides fused to the TAT-PTD (L-TAT) were tested for inhibition of neurotransmitters and compared to use of L-TAT alone (SEQ ID NO: 3). In vitro screening for synthetic peptides capable of efficiently and selectively blocking neurotransmitter release in the PC12 cell line grown under defined conditions was performed.
PC12 cells were washed with DMEM-WM (Dulbecco's Modified Eagle Medium (GIBCO cat. no. 31968) completed with 25 units of penicillin and streptomycin each) and loaded for 1-2 h with [^3H] norepinephrine (NE; 0.5 μCi/ml) in DMEM-CM (DMEM-WM complemented with 6% horse serum and 6% fetal calf serum). Cells were washed for 1 h with DMEM-WM, and then washed 2 times at 5-minute intervals. Basal release was determined by a 15-minutes incubation with CaSB-glucose 5 mM K^+ (CaSB-glucose: 140 mM NaCl, 5 mM KCl, 2 mM CaCl2, 11 mM glucose, [pH 7.4]). The peptides were added to the cells at defined concentrations after loading with NE but before induction of secretion. Cells were depolarized with 85 mM K^+ (CaSB-glucose with Na^+ reduced accordingly) for 15 minutes to determine stimulated release. Superfusate (1 ml) was removed to tubes. Adherent cells were solubilized in CaSB-glucose-0.1% Triton (1 ml/well). The quantities of released and non-released radiolabeled neurotransmitter were determined by liquid scintillation counting of cleared superfusates and cell lysates, respectively. Total uptake was calculated by addition of released and retained radioactivity, and the percentage release was as calculated (released counts/total uptake counts)×100. Results were also expressed as percent inhibition of neurosecretion.

PC12-ES cells = assay: [3H]NE evoked secretion by PC12-ES cells with secretagogues; type: cell-based, rat; conditions: potassium 80 mM, nicotine 0.1 mM or carbachol 1 mM, 15 minutes
From the text: Neurotransmitter Secretion by PC12-ES. PC12 cells offer a number of advantages for studies of regulated secretion. Exocytosis of large dense-core vesicles (LDCVs) in these cells can be easily assayed for the release of radioactive norepinephrine ([^3H]NE) from pre-labeled cells [Greene et al., Brain Res, 129:247-63, 1977; Greene et al., J Neurochem, 30:579-86, 1978; Greene et al., J. Neurochem. 30:549-55, 1978; Greene et al., Brain Res. 138:521-8; 1977; Greene et al., Nature 268:349-51, 1977]. The neurosecretion assay was carried out by measuring [^3H]NE evoked secretion with PC12-ES cells.
PC12-ES cells were either untreated, treated with STSP (100 nM), or treated with NGF (50 ng/ml) for 48 h before the loading with [^3H]NE and prepared for release measurements. […] Media were collected, and released [^3H]NE as well as the total cell content were determined by liquid scintillation counting. Basal secretion was measured in calcium secretion buffer (CaSB) without secretagogue or CaSB supplemented with 11 mM glucose (CaSB-Glucose). The data are expressed in Table 1 as the percent secretion: [amount released/(amount released+amount in cell lysate)]×100. Net secretion is secretagogue-stimulated release minus basal release.

Recombinant furin = Recombinant furin (Homo sapiens, UniProt P09958); assay: biochemical; type: biochemical
Protocol: To determine if the peptides described herein have an effect on the activity of PC enzymes which are involved in a condition or disorder such as fibrosis, the effect of the peptides on furin activity in vitro was measured as percent inhibition of cleavage of the furin substrate fluorogenic t-butyloxycarbonyl (Boc)-RVRR-7-amino-4-methylcoumarin (MCA).
All in vitro enzyme studies were performed at room temperature in a final volume of 50-100 μl in 96-well flat-bottom black plates. The buffer consisted of 100 mM HEPES, 1 mM CaCl2, 0.5% TritonX-100, and 1 mM 2-β-mercaptoethanol pH 7.5. Assays were performed using Boc-RVRR-MCA as fluorogenic substrate at 100 μM. Recombinant furin (0.8 U of activity) was incubated with Boc-RVRR-MCA in the presence or absence of varying concentrations of synthetic peptides D-9Rac/am (SEQ ID NO. 15), L-Bel1 (SEQ ID NO. 3), or L-9K (SEQ ID NO. 6). One unit of activity is defined as the amount of furin that can release 1 μmol of MCA from the fluorogenic Boc-RVRR-MCA per min at 30° C. The release of highly fluorescent 7-amino 4-methyl coumarin (MCA) from the Boc-RVRR-MCA was monitored by a spectrofluorometer instrument at excitation and emission wavelengths of 370 nm/460 nm. […]

furin = biological target: T1, furin (Rattus norvegicus, UniProt P23377); type: biochemical
T1 construct: Furin activity was constitutively detected in PC12-ES cells; endogenous in cells; host or cells: PC12-ES cells (lysate)
Protocol: To monitor the intracellular furin activity, 80% confluent PC12-ES cells were washed twice with ice-cold phosphate-buffered saline (PBS1×) by centrifugation at 800×g for 5 minutes at 4° C., resuspended in 100 mM HEPES, 1 mM CaCl2, 0.5% TritonX-100, and 1 mM 2-β-mercaptoethanol, pH 7.5, sonicated 6 times at 4° C. for 10 seconds, and then centrifuged at 8000×g for 20 minutes at 4° C. The protein concentration in the samples was determined using a bicinchonic acid protein assay kit (Pierce Chemical Co.).
Intracellular furin activity was measured with a furin-specific fluorogenic substrate, t-butyloxycarbonyl (Boc)-[…]-7-amino-4-methylcoumarin (MCA). Briefly, the cell lysate (20 μg-60 μg of protein) prepared as described above was incubated with 100 μM Boc-RVRR-MCA in a 96-well flat-bottom black plate for at least 6 hours at room temperature and fluorescence measured by excitation at 365 nm and emission at 450 nm.

[1] = cited from earlier work

T1 sequence (P23377 108-793): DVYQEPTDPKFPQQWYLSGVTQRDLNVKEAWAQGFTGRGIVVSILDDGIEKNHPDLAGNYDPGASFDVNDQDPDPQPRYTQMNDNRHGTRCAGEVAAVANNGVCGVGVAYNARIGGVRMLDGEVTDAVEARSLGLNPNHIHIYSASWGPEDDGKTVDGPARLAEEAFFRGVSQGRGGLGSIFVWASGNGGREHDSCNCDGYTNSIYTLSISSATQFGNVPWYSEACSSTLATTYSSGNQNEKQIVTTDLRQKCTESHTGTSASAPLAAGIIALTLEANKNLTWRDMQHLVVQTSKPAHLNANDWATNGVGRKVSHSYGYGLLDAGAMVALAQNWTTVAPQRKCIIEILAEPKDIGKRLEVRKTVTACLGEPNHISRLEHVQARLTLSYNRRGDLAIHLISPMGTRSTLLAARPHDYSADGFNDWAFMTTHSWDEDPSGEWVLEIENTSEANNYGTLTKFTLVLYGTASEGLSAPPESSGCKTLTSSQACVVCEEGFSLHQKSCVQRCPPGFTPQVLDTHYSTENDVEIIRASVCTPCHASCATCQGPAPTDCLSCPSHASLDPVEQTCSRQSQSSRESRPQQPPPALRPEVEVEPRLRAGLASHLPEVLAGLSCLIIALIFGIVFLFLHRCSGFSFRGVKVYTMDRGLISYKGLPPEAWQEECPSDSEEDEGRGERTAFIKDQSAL
Recombinant furin, sequence (P09958 108-794): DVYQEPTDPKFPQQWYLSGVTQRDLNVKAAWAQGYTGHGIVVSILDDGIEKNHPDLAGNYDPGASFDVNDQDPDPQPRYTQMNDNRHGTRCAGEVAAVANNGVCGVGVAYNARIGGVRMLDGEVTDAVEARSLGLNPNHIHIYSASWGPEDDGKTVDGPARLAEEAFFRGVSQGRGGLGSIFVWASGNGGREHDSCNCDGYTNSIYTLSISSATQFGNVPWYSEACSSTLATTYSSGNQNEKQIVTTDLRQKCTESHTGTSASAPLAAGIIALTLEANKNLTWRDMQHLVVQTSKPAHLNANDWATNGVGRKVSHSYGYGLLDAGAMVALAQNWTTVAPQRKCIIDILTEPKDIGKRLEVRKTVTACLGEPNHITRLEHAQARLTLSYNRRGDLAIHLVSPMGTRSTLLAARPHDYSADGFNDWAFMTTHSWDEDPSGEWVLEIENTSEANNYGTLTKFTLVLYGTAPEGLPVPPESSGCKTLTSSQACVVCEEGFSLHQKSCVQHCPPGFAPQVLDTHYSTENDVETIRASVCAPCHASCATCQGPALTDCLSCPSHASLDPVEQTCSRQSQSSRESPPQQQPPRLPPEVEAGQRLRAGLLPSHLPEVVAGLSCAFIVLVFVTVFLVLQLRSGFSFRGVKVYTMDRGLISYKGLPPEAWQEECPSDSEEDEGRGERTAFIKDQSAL

## 3D-MRP: SEQ ID NO: 8 (KKKKKFDFKKPFKLDGLDFKRNRK; Synthetic peptide 3DMRPED) [Peptide 3D-MRP]
PC12 cells
  dose dependence of inhibition of neurosecretion: dose dependent inhibition

## 9R-L-Ac-am: SEQ ID NO: 11 (Ac-GYGRRRRRRRRRG-NH2) [Peptide 9R-L-Ac-am]
PC12 cells
  inhibition of neurotransmitter-evoked secretion: approximately 67%
  level of inhibition maintained over the 48 hour period: approximately 80%

## 9R-L: SEQ ID NO: 5 (GYGRRRRRRRRRG; Synthetic peptide 9R-L)
PC12 cells
  inhibition of neurotransmitter-evoked secretion: approximately 70%
  level of inhibition maintained over the 48 hour period: approximately 80%

## 9R-MRP: SEQ ID NO: 22; fusion peptide (GYGRRRRRRRRRGKKKKKKFSFKKPFKLSGLSFKRNRK; Synthetic peptide 9R-MRP)
PC12 cells; 50 μM (mixture: 50 μM each)
  inhibition of secretion: approximately 70%

## C[N+](C)(C)CCOC(N)=O [Carbachol]
PC12-ES cells; CaSB-Glucose, NGF differentiated cells
  percent secretion of [3H]NE: 32.4%
PC12-ES cells; CaSB-Glucose, STSP differentiated cells
  percent secretion of [3H]NE: 57%
PC12-ES cells; CaSB-Glucose, non-differentiated cells
  percent secretion of [3H]NE: 37.24%
PC12-ES cells; CaSB, NGF differentiated cells
  percent secretion of [3H]NE: 27%
PC12-ES cells; CaSB, STSP differentiated cells
  percent secretion of [3H]NE: 46.5%
PC12-ES cells; CaSB, non-differentiated cells
  percent secretion of [3H]NE: 44.7%

## O=C(O)CN(CCN(CC(=O)O)CC(=O)O)CC(=O)O [EDTA, reference compound]
Recombinant furin
  inhibition of in vitro furin activity (in words): effectively suppressed
furin
  inhibition of intracellular furin activity (in words): inhibited

## O=C(O)CN(CCOCCOCCN(CC(=O)O)CC(=O)O)CC(=O)O [EGTA, reference compound]
Recombinant furin; Boc-RVRR-MCA 100 μM as substrate
  inhibition of in vitro furin activity (in words): effectively suppressed
furin; EDTA 50 mM, EGTA 50 mM, Dec-RVKR-CMK 50 μM
  inhibition of intracellular furin activity (in words): inhibited

## GRRRRRRRRRGYG [Peptide 9Rrev-D]
PC12 cells
  inhibition of neurotransmitter-evoked secretion: approximately 57%
  level of inhibition maintained over the 48 hour period: approximately 80%

## GYGRRRRRRRRRG [Peptide 9R-D]
PC12 cells
  inhibition of neurotransmitter-evoked secretion: approximately 65%
  level of inhibition maintained over the 48 hour period: approximately 80%

## L-Tat 49-86: SEQ ID NO: 4 (GRKKRRQRRRAHQNSQTHQASLSKQPTSQPRGDPTGKEG; Synthetic peptide L-Tat 49-86)
PC12 cells; 0 hours
  inhibition of secretion, stability test: <20%
PC12 cells; 1 hour
  inhibition of secretion, stability test: >10%
PC12 cells; 24 hours
  inhibition of secretion, stability test: 26%
PC12 cells; 48 hours
  inhibition of secretion, stability test: 25%
PC12 cells; No Serum
  inhibition of secretion, stability test: 50%

## L-Tat-3D-MRP: SEQ ID NO: 10 (GYGRKKRRQRRRGKKKKKFDFKKPFKLDGLDFKRNRK; Synthetic peptide L-Tat-3DMRPED)
PC12 cells
  dose dependence of inhibition of neurosecretion: dose dependent inhibition

## L-Tat-ESUP-A: SEQ ID NO: 1; ESUP-A fused to the TAT-PTD (GYGRKKRRQRRRGSNKTRIDEANQRATKMLGSG; Synthetic peptide L-Tat-ESUP-A)
PC12 cells
  dose dependence of inhibition of neurosecretion: dose dependent inhibition
PC12 cells; peptide 10 μM
  inhibition of PC12 neurotransmitter secretion: 30%
PC12 cells; peptide 50 μM
  inhibition of PC12 neurotransmitter secretion: 40%
PC12 cells; peptide 100 μM
  inhibition of PC12 neurotransmitter secretion: 50%
PC12 cells; peptide 250 μM
  inhibition of PC12 neurotransmitter secretion: 70%

## L-Tat-MRP: SEQ ID NO: 9 (GYGRKKRRQRRRGKKKKKFSFKKPFKLSGLSFKRNRK; Synthetic peptide L-Tat-MRPED)
PC12 cells
  dose dependence of inhibition of neurosecretion: dose dependent inhibition

## MRPEDpep: SEQ ID NO: 7 (KKKKKFSFKKPFKLSGLSFKRNRK; Synthetic peptide MRPED)
PC12 cells
  dose dependence of inhibition of neurosecretion: dose dependent inhibition
PC12 cells; 0 hours
  inhibition of secretion, stability test: >20%
PC12 cells; 1 hour
  inhibition of secretion, stability test: 23%
PC12 cells; 24 hours
  inhibition of secretion, stability test: 15%
PC12 cells; No Serum
  inhibition of secretion, stability test: 17%

## NH2-SNKTRIDEANQRATKMLGSG-COOH (H-SNKTRIDEANQRATKMLGSG-OH) [ESUP-A, reference compound]
PC12 cells
  inhibition of neurotransmitter secretion (in words): only minimal inhibition
PC12 cells; peptide 100 μM
  inhibition of PC12 neurotransmitter secretion: 20%

## Pal-Lys-Thr-Thr-Lys-Ser (Pal-KTTKS) [palmitoyl pentapeptide]
[1]; 3 ppm versus retinol 700 ppm
  improving the effects of photo-aging: as effective as retinol
[1]; in vivo
  side effects: not associated with any side effects
